What was measured:
[1] = Solubility of Compound I anhydrous Polymorph B in various liquid vehicles (suspension equilibrated at least 24 hours, filtered, HPLC); assay type: physicochemical; conditions: aqueous with cosolvent or surfactant or cyclodextrin, thermodynamic from solid
Method: Solubility determinations were carried out at room temperature unless otherwise specified. Solubility of N-[1S,2S]-3-(4-chlorophenyl)-2-(3-cyanophenyl)-1-methylpropyl]-2-methyl-2-{[5-trifluoromethyl]pyridine-2-yl}oxy}propanamide (Compound I) as anhydrous unsolvated Polymorph B (such as prepared in Preparatory Example 2) was determined by preparing a suspension of anhydrous Polymorph B of Compound I in the solvent system. After equilibration for at least 24 hours, the suspension was filtered and the supernatant was analyzed by HPLC. Chromatography was performed on either a Vydac C18 300 Å 250×4.6 mm 5 μm particle size with in-line Phenomenex Security Guard w/C18 cartridge or on a Polaris C18-Ether columns or on a Polaris C8-Ether columns using 0.1% phosphoric acid in combination with methanol or acetonitrile depending on HPLC conditions. The compound was detected at 220 and 272 nm wavelength and assayed using standard curves. The results are presented below in Table 1, calculated based on mg/g vehicle.

[2] = Aqueous solubility of Compound I; assay type: physicochemical; conditions: water

C[C@H](NC(=O)C(C)(C)Oc1ccc(C(F)(F)F)cn1)[C@@H](Cc1ccc(Cl)cc1)c1cccc(C#N)c1 [Compound I, N-[1S,2S]-3-[(4-chlorophenyl)-2-(3-cyanophenyl)-1-methylpropyl]-2-methyl-2-{[(5-trifluoromethyl)pyridine-2-yl]oxy}propanamide]
solubility ([1]; 40% H2O, 35% Captisol, 15% glycerol, 10% EtOH, 40% H20, room temperature): 20 µg/mL | solubility ([1]; 50% H2O, 25% PG, 25% PEG300, 50% H20, room temperature): 70 µg/mL | solubility ([1]; 90% H2O, 10% glycerol, 90% H20, room temperature): < 1 µg/mL | solubility ([1]; 94.5% H2O, 0.5% Tween80, 5% EtOH, 94.5% H20, room temperature): 80 µg/mL | solubility ([1]; 95.5% H2O, 0.5% Tween80, 95.5% H20, room temperature): 80 µg/mL | solubility ([1]; 97.5% H2O, 2.5% Tween80, 97.5% H20, room temperature): 400 µg/mL | solubility ([1]; 99.75% H2O, 0.25% Tween80, 99.75% H20, room temperature): 40 µg/mL | solubility ([1]; 0.5% Tween80, 95.5% Saline, room temperature): 80 µg/mL | solubility ([1]; 10% EtOH, 90% H2O, room temperature): < 1 µg/mL | solubility ([1]; 15% glycerol, 10% EtOH, 75% H2O, room temperature): < 1 µg/mL | solubility ([1]; 25% PEG400, 75% H2O, room temperature): 4 µg/mL | solubility ([1]; 35% hydroxypropyl beta cyclodextrin, 18% glycerol, 10% EtOH, 37% H20, room temperature): 40 µg/mL | solubility [2]: < 0.4 µg/mL

From patent US20100216848A1, “LIQUID PHARMACEUTICAL COMPOSITIONS FOR PARENTERAL ADMINISTRATION OF A SUBSTITUTED AMIDE” (priority 2007, published 2010)
